Reference: ChEMBL document CHEMBL5247627, “1-Methyl-3-((4-(quinolin-4-yloxy)phenyl)amino)-1H-pyrazole-4-carboxamide derivatives as new rearranged during Transfection (RET) kinase inhibitors capable of suppressing resistant mutants in solvent-front regions” (Eur J Med Chem, 2022)

What was measured:
BaF3 [1] = assay: Antiproliferative activity against mouse BaF3 cells expressing rearranged during transfection kinase V804M-CCDC6 incubated for 74 to 76 hrs by cell counting kit 8 method
BaF3 [2] = assay: Antiproliferative activity against mouse BaF3 cells expressing rearranged during transfection kinase G810R-CCDC6 incubated for 74 to 76 hrs by cell counting kit 8 method
BaF3 [3] = assay: Antiproliferative activity against mouse BaF3 cells expressing rearranged during transfection kinase G810C-CCDC6 incubated for 74 to 76 hrs by cell counting kit 8 method
BaF3 [4] = assay: Antiproliferative activity against mouse BaF3 cells incubated for 74 to 76 hrs by cell counting kit 8 method; type: functional, cell-based
BaF3 [5] = assay: Antiproliferative activity against mouse BaF3 cells expressing wildtype rearranged during transfection kinase-CCDC6 incubated for 74 to 76 hrs by cell counting kit 8 method
[6] = target: Proto-oncogene tyrosine-protein kinase receptor Ret (Homo sapiens, UniProt P07949); assay: Inhibition of wild type rearranged during transfection kinase (unknown origin) preincubated for 1 hr followed by addition of development agent incubated for 1 hr measured by FRET-based Z'-Lyte assay
BaF3 [7] = assay: Antiproliferative activity against mouse BaF3 cells expressing rearranged during transfection kinase V804L-G810R incubated for 74 to 76 hrs by cell counting kit 8 method
BaF3 [8] = assay: Antiproliferative activity against mouse BaF3 cells expressing rearranged during transfection kinase V804L-G810S incubated for 74 to 76 hrs by cell counting kit 8 method
BaF3 [9] = assay: Antiproliferative activity against mouse BaF3 cells expressing rearranged during transfection kinase V804L-KIF5B incubated for 74 to 76 hrs by cell counting kit 8 method
BaF3 [10] = assay: Antiproliferative activity against mouse BaF3 cells expressing rearranged during transfection kinase V804M-KIF5B incubated for 74 to 76 hrs by cell counting kit 8 method
BaF3 [11] = assay: Antiproliferative activity against mouse BaF3 cells expressing wildtype rearranged during transfection kinase-KIF5B incubated for 74 to 76 hrs by cell counting kit 8 method
BaF3 [12] = assay: Antiproliferative activity against mouse BaF3 cells expressing rearranged during transfection kinase V804L-G810C incubated for 74 to 76 hrs by cell counting kit 8 method

Sequence of Proto-oncogene tyrosine-protein kinase receptor Ret (P07949 whole entry): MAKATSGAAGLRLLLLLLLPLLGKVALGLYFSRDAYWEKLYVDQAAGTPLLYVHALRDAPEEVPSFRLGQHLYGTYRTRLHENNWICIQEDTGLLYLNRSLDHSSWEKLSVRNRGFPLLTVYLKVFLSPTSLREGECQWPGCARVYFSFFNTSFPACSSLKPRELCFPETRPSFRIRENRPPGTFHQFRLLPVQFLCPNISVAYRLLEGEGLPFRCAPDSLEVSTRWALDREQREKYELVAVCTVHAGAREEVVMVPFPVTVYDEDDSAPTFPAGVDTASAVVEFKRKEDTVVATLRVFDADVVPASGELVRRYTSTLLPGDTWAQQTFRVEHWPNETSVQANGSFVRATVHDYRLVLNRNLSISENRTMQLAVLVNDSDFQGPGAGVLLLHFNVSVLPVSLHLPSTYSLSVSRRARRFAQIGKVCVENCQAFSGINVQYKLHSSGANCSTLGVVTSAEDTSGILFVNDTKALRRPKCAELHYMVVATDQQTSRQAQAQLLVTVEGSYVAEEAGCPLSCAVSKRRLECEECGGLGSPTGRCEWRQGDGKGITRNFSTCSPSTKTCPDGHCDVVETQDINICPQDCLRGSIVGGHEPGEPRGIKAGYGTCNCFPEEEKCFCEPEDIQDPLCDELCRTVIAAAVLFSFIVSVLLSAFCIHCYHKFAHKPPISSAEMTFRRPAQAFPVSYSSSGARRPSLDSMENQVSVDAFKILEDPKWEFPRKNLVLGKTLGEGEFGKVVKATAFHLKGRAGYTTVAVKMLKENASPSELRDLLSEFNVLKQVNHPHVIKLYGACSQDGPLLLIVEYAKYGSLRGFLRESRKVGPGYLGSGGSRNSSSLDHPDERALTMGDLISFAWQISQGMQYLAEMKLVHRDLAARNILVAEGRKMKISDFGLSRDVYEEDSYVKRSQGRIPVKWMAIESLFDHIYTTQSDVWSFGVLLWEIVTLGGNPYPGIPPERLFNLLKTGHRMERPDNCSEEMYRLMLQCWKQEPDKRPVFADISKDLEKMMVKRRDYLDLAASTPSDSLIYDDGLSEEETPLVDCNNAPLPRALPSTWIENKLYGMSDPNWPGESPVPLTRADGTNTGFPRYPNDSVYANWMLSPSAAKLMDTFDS

| SMILES | IC50 (BaF3 [1]) [nM] | IC50 (BaF3 [2]) [nM] | IC50 (BaF3 [3]) [nM] | IC50 (BaF3 [4]) [µM] | IC50 (BaF3 [5]) [nM] | IC50 [6] [µM] | IC50 (BaF3 [7]) [nM] | IC50 (BaF3 [8]) [nM] | IC50 (BaF3 [9]) [nM] | IC50 (BaF3 [10]) [nM] | IC50 (BaF3 [11]) [nM] | IC50 (BaF3 [12]) [nM] |
| --- | --- | --- | --- | --- | --- | --- | --- | --- | --- | --- | --- | --- |
| COc1cc2nccc(Oc3ccc(Nc4nn(C)cc4C(=O)NC4CCCCCCC4)cc3)c2cc1C(N)=O | 171 | 523 | 95.3 | 3.21 | 12.5 | – | – | – | – | – | – | – |
| COc1cc2nccc(Oc3ccc(Nc4nn(C)cc4C(=O)N4CCCCC4)cc3)c2cc1C(N)=O | 3780 | 3520 | 5760 | 5.65 | 3060 | > 10 | – | – | – | – | – | – |
| COc1cc2nccc(Oc3ccc(Nc4nn(C)cc4C(=O)NCC4CCCCC4)cc3)c2cc1C(N)=O | 888 | 3620 | 1260 | > 10 | 281 | – | – | – | – | – | – | – |
| COc1cc2nccc(Oc3ccc(Nc4nn(C)cc4C(=O)NOCc4ccccc4)cc3)c2cc1C(N)=O | 732 | 4940 | > 10000 | > 10 | 410 | – | – | – | – | – | – | – |
| COc1cc2nccc(Oc3ccc(Nc4nn(C)cc4C(=O)Nc4ccccc4)cc3)c2cc1C(N)=O | 1720 | > 10000 | > 10000 | > 10 | 2260 | – | – | – | – | – | – | – |
| CO[C@]1(C(=O)N[C@@H](C)c2ccc(-n3cc(F)cn3)nc2)CC[C@H](c2nc(C)cc(Nc3cc(C)[nH]n3)n2)CC1 [PRALSETINIB] | 3.5 | 575 | > 261 | 1.17 | 4.4 | – | 241 | 21.7 | 4.1 | 9.2 | 5.7 | 215 |
| COc1cc2nccc(Oc3ccc(Nc4nn(C)cc4C(=O)N4CCCC5CCCCC54)cc3)c2cc1C(N)=O (stereo unspecified) | 903 | 1700 | 3770 | 4.33 | 2980 | > 10 | – | – | – | – | – | – |
| COc1cc2nccc(Oc3ccc(Nc4nn(C)cc4C(=O)NCC(C)C)cc3)c2cc1C(N)=O | 2080 | 2050 | 2280 | > 10 | 206 | – | – | – | – | – | – | – |
| COc1cc2nccc(Oc3ccc(Nc4nn(C)cc4C(=O)Nc4ccc(F)cc4)cc3)c2cc1C(N)=O | 3020 | 2900 | 5190 | 3.06 | 2980 | > 10 | – | – | – | – | – | – |
| COc1cc2nccc(Oc3ccc(Nc4nn(C)cc4C(=O)Nc4ccccc4F)cc3)c2cc1C(N)=O | 1860 | 1200 | > 10000 | 1.71 | > 10000 | > 10 | – | – | – | – | – | – |
| COc1ccc(CN2C3CC2CN(c2ccc(-c4cc(OCC(C)(C)O)cn5ncc(C#N)c45)cn2)C3)cn1 [SELPERCATINIB] | 17.4 | 1100 | 472 | > 10 | 7.4 | – | 4340 | 253 | 37.8 | 72 | 10.6 | 1240 |
| COc1cc2nccc(Oc3ccc(Nc4nn(C)cc4C(=O)NCc4ccccc4)cc3)c2cc1C(N)=O | 1120 | 9080 | 8540 | > 10 | 2180 | – | – | – | – | – | – | – |
| COc1cc2nccc(Oc3ccc(Nc4nn(C)cc4C(=O)Nc4cccc(F)c4)cc3)c2cc1C(N)=O | 3270 | 3440 | 8520 | 4.48 | 1560 | > 10 | – | – | – | – | – | – |

Next, values leading:

| IC50 (BaF3 [1]) [nM] | IC50 (BaF3 [2]) [nM] | IC50 (BaF3 [3]) [nM] | IC50 (BaF3 [4]) [µM] | IC50 (BaF3 [5]) [nM] | IC50 [6] [µM] | IC50 (BaF3 [7]) [nM] | IC50 (BaF3 [8]) [nM] | IC50 (BaF3 [9]) [nM] | IC50 (BaF3 [10]) [nM] | IC50 (BaF3 [11]) [nM] | IC50 (BaF3 [12]) [nM] | SMILES |
| --- | --- | --- | --- | --- | --- | --- | --- | --- | --- | --- | --- | --- |
| 53.4 | 137 | 29.4 | > 10 | 7.8 | – | – | – | – | – | – | – | COc1cc2nccc(Oc3ccc(Nc4nn(C)cc4C(=O)NC45CC6CC(CC(C6)C4)C5)c(Cl)c3)c2cc1C(N)=O |
| 70.3 | 230 | 148 | 9.77 | 18.8 | – | – | – | – | – | – | – | COc1cc2nccc(Oc3ccc(Nc4nn(C)cc4C(=O)NC45CC6CC(CC(C6)C4)C5)c(C#N)c3)c2cc1C(N)=O |
| 161 | 263 | 329 | > 10 | 13.9 | – | – | – | – | – | – | – | COc1cc2nccc(Oc3ccc(Nc4nn(C)cc4C(=O)NC45CCC(CC4)CC5)cc3)c2cc1C(N)=O |
| 141 | 591 | 349 | – | 21.6 | – | – | – | – | – | – | – | COc1cc(Oc2ccnc3cc(OC)c(C(N)=O)cc23)ccc1Nc1nn(C)cc1C(=O)NC12CC3CC(CC(C3)C1)C2 |
| 29.7 | 534 | 233 | > 10 | 11.2 | – | – | – | – | – | – | – | Cn1cc(C(=O)NC23CC4CC(CC(C4)C2)C3)c(Nc2ccc(Oc3ccnc4cc(OCCN5CCOCC5)c(C(N)=O)cc34)c(F)c2)n1 |
| 6910 | 9680 | 9510 | > 10 | 1160 | – | – | – | – | – | – | – | COc1cc2nccc(Oc3ccc(Nc4nn(C)cc4C(=O)NCC4CCCO4)cc3)c2cc1C(N)=O (stereo unspecified) |
| 1360 | 1640 | 1000 | > 10 | 179 | – | – | – | – | – | – | – | COc1cc2nccc(Oc3ccc(Nc4nn(C)cc4C(=O)NC45CC6CC(CC(C6)C4)C5)cc3F)c2cc1C(N)=O |
| 1030 | 7280 | 3610 | > 10 | 153 | – | – | – | – | – | – | – | COc1cc2nccc(Oc3ccc(Nc4nn(C)cc4C(=O)NC4CCCC4)cc3)c2cc1C(N)=O |
| 1620 | 1290 | 659 | > 10 | 142 | – | – | – | – | – | – | – | COc1cc2nccc(Oc3ccc(Nc4nn(C)cc4C(=O)NC45CC6CC(CC(C6)C4)C5)cc3F)c2cc1C#N |
| 7 | 329 | 363 | 1.35 | 5.1 | – | – | – | – | – | – | – | Cn1cc(C(=O)NC23CC4CC(CC(C4)C2)C3)c(Nc2ccc(Oc3ccnc4cc(OCCCN5CCOCC5)c(C(N)=O)cc34)c(F)c2)n1 |
| 62.2 | 464 | 66.1 | > 10 | 11.8 | – | – | – | – | – | – | – | COc1cc2nccc(Oc3ccc(Nc4nn(C)cc4C(=O)NC45CC6CC(CC(C6)C4)C5)c(C)c3)c2cc1C(N)=O |
| 61.5 | 192 | 122 | > 10 | 13.8 | – | – | – | – | – | – | – | CNC(=O)c1cc2c(Oc3ccc(Nc4nn(C)cc4C(=O)NC45CC6CC(CC(C6)C4)C5)cc3F)ccnc2cc1OC |
| 60.8 | 285 | 99.9 | > 10 | 8.7 | – | – | – | – | – | – | – | COc1cc2nccc(Oc3ccc(Nc4nn(C)cc4C(=O)NC45CC6CC(CC(C6)C4)C5)cc3)c2cc1C(N)=O |
| 235 | 582 | 442 | 4.8 | 24 | – | – | – | – | – | – | – | COc1cc2nccc(Oc3ccc(Nc4nn(C)cc4C(=O)NC4CCCCC4)cc3)c2cc1C(N)=O |
